Laboratory results reported in publication PMC10222203 (Pharmaceutics, 2023).
Values joined by “and” are separate entries in the source; they are usually repeats but may differ in a detail not shown here. Equal values may be shown once. Read-outs that look alike come from different tables or passages of the source.

Legend:
[1] = Simulation of unbound brain exposure (two-compartment model, Berkeley Madonna); design: species or system rat; details: parameter used in simulation; for clearance: read-out: Systemic clearance, CL (converted); for Vd: rat
Procedure: The simulation was performed at given initial total plasma concentration to be equal to steady-state concentrations obtained in the neuroPK study (Table 2), utilizing the parameters listed in Supplementary Material Table S3. A two-compartment model consisting of blood and brain compartments with a focus on unbound concentrations was characterized (Supplementary Material Figure S1 describes the structure of the model and the codes).

[2] = test system: neurons differentiated from human neural stem cells; details: for Total neuronal cell-to-unbound medium concentration ratio, Kp,u,cell,N: neurons, 500 nM, 5 h, 37 °C
Procedure: (§1) Human neural stem cells (hNSCs) derived from human embryonic stem cells (hESCs) were differentiated to neurons or astrocytes. […] Cells were allowed to differentiate into desired lineage for three weeks before the addition of peptides. The peptides were individually added to 2 mL Neurobasal medium to a final concentration of 500 nM and incubated at 37 °C for 5 h. The medium was removed, and the cells were subsequently lysed using 300 µL of Pierce™ lysis buffer (ThermoFisher Scientific Cat. No. 87787) per well. Samples were kept at −20 °C pending analysis. The uptake of peptides was determined using the total cellular-to-unbound medium concentrations ratio, Kp,u,cell (mL/g total protein), according to Equation (11). (11) Kp,u,cell=Ccell/Cu,medium=Acell/Vcell/Cu,medium where Acell (nanomoles per g total protein) is the total amount of peptide in the cell lysate normalized by the total protein content and estimated volume of the cells. Total protein concentration (mg/mL) in the cell lysate was determined using a NanoDrop 2000C (ThermoFisher, Waltham, MA, USA) by measuring the absorbance at 280 nm. Vcell was estimated using the value of 6.5 µL/mg protein by analogy of HEK293 cells. […] The parameter Kp,u,cell (mL per g of total protein at 5 h) is a partition coefficient between the buffer and the cell culture, where the fraction in the buffer has no binding, but the measured concentration in the cells is a composite of both uptake into the cells and binding to both the cell surface and intra-cellular components. This parameter is thereby similar to Vu,brain as it also gives a description of both binding and uptake processes.
(§2) For estimation of the extent of transport across the cellular membrane, the unbound intracellular-to-extracellular ratio, Kp,uu,cell was calculated as described below:(12) Kp,uu,cell=Kp,u,cell×fu,cell

[3] = test system: astrocytes differentiated from human neural stem cells; details: 500 nM, 5 h, 37 °C
Procedure: as §1, §2

in vitro [4] = assay: in vitro
Procedure: (§3) The in vitro BBB model, consisting of CD34^+ endothelial cells (ECs) derived from hematopoietic stem cells in co-culture with bovine brain pericytes, was established as described by Cecchelli et al.. Written and informed consent was obtained for the collection of human umbilical cord blood, in compliance with French legislation. […] All experiments were carried out in line with the authorized protocol.
(§4) These isolated CD34+ cells were cultured in EGM-2, supplemented with 20% (v:v) FBS and 50 ng/mL vascular endothelial growth factor on 1% (w:v) gelatine-coated 24-well plates (2 × 10^5 cells/well). After 15–20 days, ECs are seen in the culture dish. For each experiment, the cells were expanded in 1% (w:v) gelatine-coated T75 flasks (BD Biosciences, Le Pont-de-Claix, France) in EGM-2. Bovine brain pericytes were isolated and characterized as described by Vandenhaute et al.. Sub-clones were cultured in Dulbecco’s Modified Eagle’s Medium supplemented with 20% (v:v) FBS, 2 mM L-glutamine, 50 µg/mL gentamycin, and 1 ng/mL basic fibroblast growth factor. At confluency, 5 × 10^4 cells were seeded in ECM-5 with 5% (v:v) FBS, 50 µg/mL gentamycin, and 0.5% endothelial cell growth factor in gelatine-coated 12-well plates (Costar, Corning Inc., New York, NY, USA). CD34^+-derived ECs were seeded at 8 × 10^4 cells per Matrigel-coated (BD Biosciences) insert (3401, Corning Inc., NY, USA) and put in co-culture with the bovine brain pericytes, with the pericytes at the bottom of the well, for 6 days to achieve brain-like endothelial cell (BLEC) characteristics (Figure 4b).
(§5) At the beginning of the permeability experiments, inserts with BLEC monolayers were transferred to new abluminal (receiver) compartments previously filled with 1.5 mL of RH buffer, and 500 µL of the compounds dissolved in RH buffer, with the addition of the paracellular marker sodium fluorescein (NaFlu), were added to the luminal (donor) compartment. After 3 h of incubation at 37 °C, with a shaking velocity of 60 rpm, aliquots were taken from the donor and receiver compartment. The BLEC monolayers were washed twice with cold RH buffer and lysed with RLT Lysis buffer. The samples were kept at −20 °C pending analysis in low-binding tubes.
(§6) An increase in the permeability to NaFlu in the presence of the peptide can indicate an increase in paracellular leakage and consequent loss of barrier integrity. To evaluate the ability of test compounds to cross Matrigel-coated filters without cells and to control for the adsorption to plastics and/or Matrigel, the NaFlu and peptide’s permeability over inserts without cells were also assessed. Mass balance (M.B%) was calculated from the amount of compound recovered in both compartments at the end of the experiment divided by the total amount added to the donor compartment at the start of the experiment.
(§7) Samples from both compartments as well as the lysed endothelial cells were analysed for fluorescence using a Synergy H1 (Biotek) set to quantify NaFlu (wavelengths Excitation 490 nm and Emission 525 nm) and with UPLC-MS/MS to assess the permeability and cellular uptake of the peptides. All experiments were performed in triplicate (n = 3 independent experiments per concentration and cCPPs).
(§8) Papp is the apparent permeability, J is the rate of appearance of the compound in the receiver compartment (amount/sec), and C0 is the concentration in the donor compartment at the start of the experiment (amount/mL).

[5] = test system: brain-like endothelial cells (BLECs); assay: in vitro
Procedure: as §3, §4, §5, §6, §7, §8

in vitro [6] = assay: in vitro; remark: listed apart in the source
[7] = rat weight 0.3 kg, read-out: Apparent volume of distribution, Vd
[8] = read-out: Apparent volume of distribution unbound, Vd,u
[9] = brain tissue homogenate, equilibrium dialysis

CC(C)C[C@@H]1NC(=O)CNC(=O)[C@H](CC(N)=O)NC(=O)[C@H](CCCNC(=N)N)NC(=O)[C@H]([C@@H](C)O)NC(=O)[C@@H]2CSSC[C@@H]3NC(=O)[C@H]([C@@H](C)O)NC(=O)CNC(=O)CNC(=O)[C@H](C(C)C)NC(=O)[C@@H]4CSSC[C@H](NC(=O)[C@H]([C@@H](C)O)NC(=O)[C@H](CSSC[C@H](NC(=O)[C@H](C(C)C)NC(=O)[C@@H]5CCCN5C1=O)C(=O)NCC(=O)N[C@@H](CCC(=O)O)C(=O)N[C@@H]([C@@H](C)O)C(=O)N4)NC(=O)CNC(=O)[C@@H]1CCCN1C(=O)[C@H]([C@@H](C)O)NC(=O)[C@H](CC(N)=O)NC3=O)C(=O)N[C@@H](CO)C(=O)N[C@@H](Cc1c[nH]c3ccccc13)C(=O)N1CCC[C@H]1C(=O)N[C@@H](C(C)C)C(=O)N2 [Kalata B1]
clearance ([1]; rat weight 0.3 kg): 0.48 mL/min | Vd [1, 7]: 0.0966 L | Vd [1, 8]: 0.029 L | Relative reduction of Kp,uu,cell in cell culture versus tissue slice experiments ([2]; neuron and astrocyte cultures vs brain slices): ca. 3 fold | Difference between Kp,u,cell (neurons, astrocytes) and Vu,brain (brain slice assay) ([2]; neurons and astrocytes vs brain slices): less than 2 fold | Total neuronal cell-to-unbound medium concentration ratio, Kp,u,cell,N [2]: 135.35 ± 21.2 mL/g total protein | Total astrocyte cell-to-unbound medium concentration ratio, Kp,u,cell,A [3]: 94.73 ± 3.08 mL/g total protein | Total astrocyte cell-to-unbound medium concentration ratio, Kp,u,cell,A ([3]; listed as kalata B1): 94.7 mL/g total protein | Papp (in vitro [4]; Endothelial permeability, Pe (average across concentrations), BLEC monolayer, 3 h, 37 °C): 3.83 ×10⁻⁶ cm/s | Papp (in vitro [4]; Papp, human in vitro BBB model, value used in simulation (Table S3)): 3.19 ×10⁻⁶ cm/s | Percent of the initial amount in the lysed endothelial cells ([5]; BLECs exposed to 1000 nM peptide): 0.09% | Percent of the initial amount in the lysed endothelial cells ([5]; BLECs exposed to 2000 nM peptide): 0.23% | Percent of the initial amount in the lysed endothelial cells ([5]; BLECs exposed to 4000 nM peptide): 3.50% | Percent of the initial amount in the lysed endothelial cells ([5]; BLECs pre-exposed to 500 nM peptide): 0.19% | Bound to brain tissue constituents (in vitro [6]; [9]): 93% | fraction unbound (in vitro [6]; rat, brain homogenate): 0.0639 ± 0.0072

CC[C@H](C)[C@@H]1NC(=O)[C@@H]2CCCN2C(=O)[C@@H]2CCCN2C(=O)[C@H]([C@@H](C)CC)NC(=O)[C@H](CO)NC(=O)[C@H](CCCCN)NC(=O)[C@H]([C@@H](C)O)NC(=O)[C@@H]2CSSC[C@H](NC1=O)C(=O)N[C@@H](Cc1ccccc1)C(=O)N1CCC[C@H]1C(=O)N[C@@H](CC(=O)O)C(=O)NCC(=O)N[C@@H](CCCNC(=N)N)C(=O)N2 [SFTI-1, sunflower trypsin inhibitor-1]
CLin [1]: 0.0017 L/h | CLout [1]: 0.01317 L/h | Systemic clearance unbound, CLu [1]: 0.0307 L/h | Total steady-state plasma concentration, Cplasma,ss [1]: 0.6052 mg/L | Unbound steady-state plasma concentration, Cplasma,u,ss [1]: 0.5665 mg/L | clearance ([1]; rat weight 0.3 kg): 0.545 mL/min | Vd [1, 7]: 0.0573 L | Vd [1, 8]: 0.054 L | Kp,u,cell fold lower than for kalata B1 ([2]; neurons and astrocytes): up to 5 fold | Total neuronal cell-to-unbound medium concentration ratio, Kp,u,cell,N [2]: 31.11 ± 12.46 mL/g total protein | Total astrocyte cell-to-unbound medium concentration ratio, Kp,u,cell,A [3]: 19.0 mL/g total protein and 19.02 ± 4.34 mL/g total protein | Papp A→B at 3 h (in vitro [4]; human, pH 7.4): 2.62 ×10⁻⁶ cm/s | Papp at 3 h (in vitro [4]; human, pH 7.4, Endothelial permeability, Pe (average across concentrations), BLEC monolayer, 3 h, 37 °C): 3.8 ×10⁻⁶ cm/s | Detection in the lysed endothelial cells ([5]; BLECs at end of transport experiment): did not detect | Brain tissue binding (in words) (in vitro [6]; [9]): almost no brain tissue-binding capacity | fraction unbound at 6 h, 1 µM (in vitro [6]; rat, brain homogenate (1 part brain with 4 parts PBS), pH 7.4): 0.951 ± 0.115
